One test deals with T1, SspH1 (C492) (Salmonella typhimurium, UniProt D0ZVG2).
T1 construct: Recombinant IpaH9.8 (21–545) and SspH1 (161–700) were incubated at 0.5 μM; His-tag (N, cleaved yes); made in house; host or cells: E. coli BL21
The test is described as follows: IA-DTB competitive chemoproteomics in spiked HEK293T lysate. The class given is binding. Conditions: HEK293T lysate spiked with recombinant protein, four hours at RT. Here is the method: (§1) HEK293T lysate supplemented with recombinant SspH1 (161–700) and SspH2 (166–783) was treated with a dilution series […] of either compound 6 or 7 for four hours at RT. Following compound treatments, we used an iodoacetamide-desthiobiotin (IA-DTB) competitive chemoproteomics workflow to assess cysteine engagement.[52] Comparison of DMSO treated lysate with compound treated lysate enabled identification of peptides where IA-DTB labelling of cysteines was blocked due to fragment engagement (Fig. S5). […] Competition of the SspH2 C580 peptide occurred at lower concentrations compared to the SspH1 C492 peptide, which corroborated our previous kinetics experiments that both compounds label SspH2 faster than SspH1 (Fig. S4).
(§2) Fig. 5 Characterisation of protein interactions by compounds 6 and 7. (A) SspH1 and SspH2 catalytic cysteine labelling with compound 6 (100–3.125 μM, 4 hours) in HEK293T lysate spiked with recombinant SspH1 and SspH2. Data are presented as mean ± SEM, n = 4. The curves were fitted with GraphPad Prism 10 using four parameter nonlinear regression with baseline correction to DMSO-treated samples. (B) SspH1 and SspH2 catalytic cysteine labelling with compound 7 (100–3.125 μM, 4 hours) in HEK293T lysate spiked with recombinant SspH1 and SspH2. Data are presented as mean ± SEM, n = 4. The curves were fitted with GraphPad Prism 10 using four parameter nonlinear regression with baseline correction to DMSO-treated samples. (C) Volcano plot of IA-DTB competition in SspH1 expressing HEK293T cells treated with compound 6 (50 μM, 4 hours). (D) Volcano plot of IA-DTB competition in SspH2 expressing HEK293T cells treated with compound 6 (50 μM, 4 hours). Data is shown as compared to DMSO treated samples, with competed peptides in the upper left-hand quadrant. Competed catalytic cysteine-containing peptides of HECT E3s (yellow), UCH DUBs (blue) and OTU DUBs (purple) are indicated. All proteomics experiments were performed with technical quadruplicates.
(§3) A pellet of 50 × 10^6 HEK293T cells was resuspended in 5 mL lysis buffer (50 mM HEPES pH 8.0, 150 mM NaCl, 1% IGEPAL, 0.1% SDS, 0.5% Na-deoxycholate, supplemented with protease inhibitor cocktail (Sigma-Aldrich, P8340)). The lysate was sonicated and centrifuged (10 min, 17 000 × g) and the soluble fraction isolated. Protein concentrations were measured using a Rapid BCA Gold Protein Assay Kit (Thermo Scientific, A53226) and diluted to 0.75 mg mL^−1 with lysis buffer. The lysate was then spiked with 0.2 μM of each recombinant SspH1 (aa 161–700) and SspH2 (aa 166–783). For each condition, four wells were treated and processed separately, representing four technical replicates. 2 μL of 100× stocks of compounds 6 and 7 in DMSO (10–0.156 mM, and DMSO only control), and 200 μL lysate was added to a 96-well plate. […]

In a further test the target is T2, SspH2 (C580) (Salmonella typhimurium, UniProt D0ZPH9).
T2 construct: Recombinant SspH1 (aa 161–700) and SspH2 (aa 166–783) were both characterised; His-tag (N, cleaved yes); made in house; host or cells: E. coli BL21
Described as above. To be noted: HEK293T lysate spiked with recombinant protein, four hours at RT. The class given is binding. As to the method:
as §1, §2, §3

T2 sequence (D0ZPH9 166-783): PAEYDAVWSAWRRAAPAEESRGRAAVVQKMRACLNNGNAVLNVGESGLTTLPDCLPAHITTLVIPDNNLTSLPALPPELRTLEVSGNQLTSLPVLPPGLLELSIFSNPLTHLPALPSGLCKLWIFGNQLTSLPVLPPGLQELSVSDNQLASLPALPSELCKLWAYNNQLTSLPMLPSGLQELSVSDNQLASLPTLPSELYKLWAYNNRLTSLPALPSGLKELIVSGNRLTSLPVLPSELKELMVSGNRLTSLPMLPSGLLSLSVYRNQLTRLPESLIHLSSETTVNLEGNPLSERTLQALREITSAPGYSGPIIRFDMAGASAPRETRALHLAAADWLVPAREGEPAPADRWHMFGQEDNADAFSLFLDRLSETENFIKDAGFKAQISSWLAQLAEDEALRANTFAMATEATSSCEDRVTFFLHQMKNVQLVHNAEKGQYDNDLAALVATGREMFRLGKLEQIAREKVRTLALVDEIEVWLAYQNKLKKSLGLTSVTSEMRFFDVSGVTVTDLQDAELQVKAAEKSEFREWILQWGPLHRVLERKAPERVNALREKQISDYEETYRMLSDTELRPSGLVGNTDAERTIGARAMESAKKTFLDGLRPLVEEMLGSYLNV
T1 sequence (D0ZVG2 161-700): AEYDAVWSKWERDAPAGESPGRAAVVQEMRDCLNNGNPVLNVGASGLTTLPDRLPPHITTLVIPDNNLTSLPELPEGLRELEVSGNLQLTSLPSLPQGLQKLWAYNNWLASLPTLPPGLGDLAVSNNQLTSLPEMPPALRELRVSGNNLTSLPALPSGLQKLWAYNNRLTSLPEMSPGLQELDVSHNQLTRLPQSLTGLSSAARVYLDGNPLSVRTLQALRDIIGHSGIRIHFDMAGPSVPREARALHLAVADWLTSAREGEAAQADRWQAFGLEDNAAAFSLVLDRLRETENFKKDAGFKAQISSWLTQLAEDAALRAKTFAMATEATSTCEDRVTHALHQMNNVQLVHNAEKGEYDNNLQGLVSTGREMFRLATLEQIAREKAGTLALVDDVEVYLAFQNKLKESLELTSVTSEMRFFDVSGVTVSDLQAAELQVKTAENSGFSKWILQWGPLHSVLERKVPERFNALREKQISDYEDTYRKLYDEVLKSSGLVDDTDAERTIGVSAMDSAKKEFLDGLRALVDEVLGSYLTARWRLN

Regarding `Cc1cc(-c2nc3ccccc3n2C2CCN(C(=O)CCl)CC2)cc(C)c1O.Cl` [compound 6], at SspH1 (C492), the “competition of IA-DTB labelling of the C492 peptide for SspH1” value is given as “concentration-dependent competition”. At SspH2 (C580), the “competition of IA-DTB labelling of the C580 peptide for SspH2” value was “concentration-dependent competition”.

With `Cl.O=C(CCl)N1CCC(n2c(-c3ccc(C(F)(F)F)cc3)nc3ccccc32)CC1` [compound 7], the “competition of IA-DTB labelling of the C492 peptide for SspH1” value at SspH1 (C492) is “concentration-dependent competition”. The “competition of IA-DTB labelling of the C580 peptide for SspH2” value on SspH2 (C580) is on record as “concentration-dependent competition”.

For the origin of these results see paper PMC12584752, “Covalent fragment screening to inhibit the E3 ligase activity of bacterial NEL enzymes SspH1 and SspH2” (RSC Chemical Biology, 2025).
